Assay results as given in patent US10517889B2, “Modulators of SMAD7 expression” (Ionis Pharmaceuticals, Inc., priority 2017, dated 2019).
Strand notation (5' to 3'): a small letter for the sugar, then the base; units joined by * are phosphorothioate-linked, units joined directly phosphodiester-linked; [ ] holds rarer units or linkages, { } end groups; capitals alone tell only the bases. e = 2'-O-(2-methoxyethyl) (MOE); [5mC] = 5-methylcytosine; d = 2'-deoxy (DNA)

Legend:
[1] = test system: human SMAD7 mRNA; assay: Antisense inhibition of human SMAD7 mRNA expression in Hep3B cells by 5-10-5 MOE gapmers, single concentration, electroporation, RT-PCR (Example 1, Study 1 and 2); assay type: cell-based; conditions: for % Inhibition of SMAD7 mRNA: electroporation with 15,000 nM antisense oligonucleotide (Study 2)
Outline: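 Readout is percent SMAD7 mRNA inhibition versus untreated cells, measured by qRT-PCR (RTS5062) and corrected for total RNA by RIBOGREEN. Oligonucleotide, 5,000 nM or 15,000 nM, was delivered by electroporation into Hep3B cells at 20,000 per well. RNA was collected about 24 h later.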

[2] = test system: human SMAD7 mRNA; assay: Dose-dependent inhibition of human SMAD7 mRNA expression in Hep3B cells (Example 3, Study 1 and 2); assay type: cell-based; conditions: electroporation; for % inhibition of SMAD7 mRNA expression: approximately 16 hours; for IC50: Study 1 (312.5-20000 nM)
Outline: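 Hep3B cells, 20,000 per well, electroporated with antisense oligonucleotide at 0.31, 1.25, 5.00 or 20.00 μM (first series) or 0.74, 2.22, 6.67 or 20.00 μM (second series). After ~16 h, SMAD7 mRNA measured by RT-qPCR (RTS5062), normalised to RIBOGREEN total RNA. Percent inhibition vs untreated cells; IC50 derived.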

[3] = 5-10-5 MOE gapmers targeting SEQ ID NO: 1 and 2
[4] = electroporation, 15,000 nM antisense oligonucleotide (Study 2), 5-10-5 MOE gapmers targeting SEQ ID NO: 1 and 2
[5] = 312.5 nM, Study 1, relative to untreated control cells
[6] = Study 2, electroporation with 15,000 nM antisense oligonucleotide, 5-10-5 MOE gapmers targeting SEQ ID NO: 1 and 2
[7] = electroporation, 5,000 nM, approximately 24 hours, relative to untreated control cells, gapmers targeting SEQ ID NO: 1 and 2
[8] = electroporation, 15,000 nM, approximately 24 hours, relative to untreated control cells, gapmers targeting SEQ ID NO: 1 and 2

| Substance | % Inhibition of SMAD7 mRNA [1, 3] | % inhibition of SMAD7 mRNA expression [1, 4] | % inhibition of SMAD7 mRNA expression [2, 5] | % inhibition of SMAD7 mRNA expression ([2]; 1250.0 nM, Study 1) | % inhibition of SMAD7 mRNA expression ([2]; 5000.0 nM, Study 1) | % inhibition of SMAD7 mRNA expression ([2]; 20000.0 nM, Study 1) | IC50 [2] | % Inhibition [1, 6] | % inhibition of SMAD7 mRNA expression [1, 7] | % inhibition of SMAD7 mRNA expression [1, 8] | % inhibition of SMAD7 mRNA expression ([1]; electroporation, 15,000 nM, approximately 24 hours, gapmers targeting SEQ ID NO: 3 and 4) | % inhibition of SMAD7 mRNA expression [1, 6] |
| --- | --- | --- | --- | --- | --- | --- | --- | --- | --- | --- | --- | --- |
| 278478 (antisense eA*e[5mC]*eA*eT*eG*dA*d[5mC]*d[5mC]*dT*d[5mC]*d[5mC]*dG*d[5mC]*dA*d[5mC]*eA*e[5mC]*e[5mC]*eA*eT) [compound 278478] | 54% | 18% | 0% | 9% | 19% | 22% | > 20 µM | – | – | – | – | – |
| 483663 (antisense e[5mC]*eA*eG*e[5mC]*e[5mC]*dT*d[5mC]*dT*dT*dG*dA*d[5mC]*dT*dT*d[5mC]*e[5mC]*eG*eA*eG*eG) [compound 483663] | 35% | 41% | 0% | 0% | 14% | 27% | > 20 µM | 56% | 47% | 49% | – | – |
| 771345 (antisense eA*e[5mC]*eA*eG*e[5mC]*dA*dT*d[5mC]*dT*dG*dG*dA*d[5mC]*dA*dG*eT*e[5mC]*eA*eG*eT) [compound 771345] | – | – | 6% | 19% | 49% | 69% | 6 µM | – | – | – | 54% | – |
| 771386 (antisense e[5mC]*eT*eG*eG*eA*d[5mC]*dA*dG*dT*d[5mC]*dT*dG*d[5mC]*dT*dG*eT*eG*eG*eA*eT) [compound 771386] | – | – | 9% | 3% | 25% | 60% | 19 µM | 57% | – | – | – | – |
| 771387 (antisense eA*eG*e[5mC]*eA*eT*d[5mC]*dT*dG*dG*dA*d[5mC]*dA*dG*dT*d[5mC]*eT*eG*e[5mC]*eT*eG) [compound 771387] | 59% | 6% | 8% | 13% | 28% | 70% | 10 µM | – | – | – | – | – |
| 771390 (antisense e[5mC]*eG*eG*e[5mC]*eT*dG*d[5mC]*d[5mC]*d[5mC]*d[5mC]*dA*d[5mC]*d[5mC]*d[5mC]*d[5mC]*eG*e[5mC]*eG*e[5mC]*eG) [compound 771390] | – | – | 0% | 12% | 26% | 51% | > 20 µM | 66% | 32% | – | – | – |
| 771397 (antisense eG*eA*eG*e[5mC]*eG*dG*d[5mC]*dG*dG*d[5mC]*dG*dG*d[5mC]*d[5mC]*d[5mC]*eG*eA*eG*eG*eG) [compound 771397] | – | 55% | 0% | 0% | 41% | 51% | 15 µM | – | – | – | – | – |
| 771399 (antisense eG*e[5mC]*e[5mC]*e[5mC]*eG*dG*dG*d[5mC]*dA*dG*dG*dA*dG*d[5mC]*dG*eG*e[5mC]*eG*eG*e[5mC]) [compound 771399] | – | – | 0% | 6% | 26% | 53% | > 20 µM | 33% | – | – | – | – |
| 771403 (antisense eG*eA*eA*e[5mC]*eA*dT*dG*dA*d[5mC]*d[5mC]*dT*d[5mC]*d[5mC]*dG*d[5mC]*eA*e[5mC]*eA*e[5mC]*e[5mC]) [compound 771403] | – | 62% | 5% | 4% | 25% | 35% | > 20 µM | – | – | – | – | – |
| 771407 (antisense eA*eG*eG*eA*eG*d[5mC]*dG*dA*dA*d[5mC]*dA*dT*dG*dA*d[5mC]*e[5mC]*eT*e[5mC]*e[5mC]*eG) [compound 771407] | – | – | 17% | 0% | 30% | 46% | > 20 µM | 59% | – | – | – | – |
| 771414 (eT*e[5mC]*eG*eG*e[5mC]*dT*dG*dT*d[5mC]*d[5mC]*dG*dT*d[5mC]*dG*d[5mC]*e[5mC]*e[5mC]*e[5mC]*eT*eT; antisense) [compound 771414] | – | – | 0% | 2% | 43% | 33% | > 20 µM | – | – | 65% | – | – |
| 771416 (e[5mC]*e[5mC]*e[5mC]*e[5mC]*eA*dT*dG*d[5mC]*dG*d[5mC]*dT*d[5mC]*dG*dG*d[5mC]*eT*eG*eT*e[5mC]*e[5mC]; antisense) [compound 771416] | – | – | 0% | 3% | 19% | 35% | > 20 µM | 58% | – | – | – | – |
| 771418 (e[5mC]*e[5mC]*eG*e[5mC]*e[5mC]*dA*d[5mC]*d[5mC]*dG*dG*d[5mC]*d[5mC]*d[5mC]*d[5mC]*dA*eT*eG*e[5mC]*eG*e[5mC]; antisense) [compound 771418] | – | 60% | 3% | 0% | 0% | 0% | – | – | – | – | – | – |
| 771439 (eG*eG*e[5mC]*eT*eG*d[5mC]*dG*d[5mC]*dG*d[5mC]*d[5mC]*dG*dG*d[5mC]*dG*eG*eG*e[5mC]*eG*e[5mC]; antisense) [compound 771439] | – | – | 0% | 24% | 49% | 55% | 9 µM | 48% | – | – | – | – |
| 771441 (e[5mC]*eG*eA*eG*eG*dG*d[5mC]*dG*dG*d[5mC]*dT*dG*d[5mC]*dG*d[5mC]*eA*eG*eG*e[5mC]*eT; antisense) [compound 771441] | 60% | 10% | 0% | 5% | 45% | 64% | 9 µM | – | – | – | – | – |
| 771444 (eA*eG*e[5mC]*e[5mC]*eT*d[5mC]*dT*dT*dG*dA*d[5mC]*dT*dT*d[5mC]*d[5mC]*eG*eA*eG*eG*eA; antisense) [compound 771444] | – | – | 0% | 0% | 9% | 29% | > 20 µM | 67% | 65% | – | – | – |
| 771461 (antisense eG*eT*eA*eG*eA*dG*d[5mC]*d[5mC]*dT*d[5mC]*d[5mC]*d[5mC]*d[5mC]*dA*d[5mC]*eT*e[5mC]*eT*e[5mC]*eG) [compound 771461] | – | – | 0% | 2% | 11% | 39% | > 20 µM | 37% | – | – | – | – |
| 771464 (antisense eG*eA*eG*eA*eG*dG*dG*d[5mC]*dT*d[5mC]*d[5mC]*dT*dG*dG*dA*e[5mC]*eA*e[5mC]*eA*eG) [compound 771464] | – | – | 11% | 8% | 21% | 50% | > 20 µM | 55% | – | – | – | – |
| 771474 (antisense eG*e[5mC]*eA*eG*e[5mC]*d[5mC]*dG*dA*dT*dT*dT*dT*dG*d[5mC]*dT*e[5mC]*e[5mC]*eG*e[5mC]*eA) [compound 771474] | – | 56% | 3% | 4% | 21% | 52% | 17 µM | – | – | – | – | – |
| 771479 (antisense eG*eG*eG*eA*eA*d[5mC]*dA*d[5mC]*d[5mC]*dT*dT*dG*dT*dG*dT*eA*e[5mC]*e[5mC]*eA*eA) [compound 771479] | – | – | 0% | 8% | 49% | 74% | 7 µM | – | – | – | – | 58% |
| 771487 (antisense e[5mC]*eT*eG*e[5mC]*eA*d[5mC]*dG*dG*dT*dA*dA*dA*dG*d[5mC]*d[5mC]*e[5mC]*eG*eT*e[5mC]*e[5mC]) [compound 771487] | – | – | 4% | 0% | 7% | 26% | > 20 µM | – | – | – | – | 45% |
